Data on 16 compounds can be found in ChEMBL document CHEMBL4392842, “Structural hybridization of pyrrolidine-based T-type calcium channel inhibitors and exploration of their analgesic effects in a neuropathic pain model” (Bioorg Med Chem Lett, 2019).

The target of data set [1] is T1, Voltage-dependent T-type calcium channel subunit alpha-1G (Homo sapiens, UniProt O43497). As to the kind of experiment: Inhibition of recombinant human Cav3.1 expressed in HEK293 cells assessed as reduction in KCl-induced increase in intracellular calcium level at 10 uM by fura-2 AM indicator based FDSS assay relative to control. In kind it is cell-based. A general note: Calcium flux is commonly read through the fluorescence of an indicator in the cells.
T1 sequence (O43497 whole entry): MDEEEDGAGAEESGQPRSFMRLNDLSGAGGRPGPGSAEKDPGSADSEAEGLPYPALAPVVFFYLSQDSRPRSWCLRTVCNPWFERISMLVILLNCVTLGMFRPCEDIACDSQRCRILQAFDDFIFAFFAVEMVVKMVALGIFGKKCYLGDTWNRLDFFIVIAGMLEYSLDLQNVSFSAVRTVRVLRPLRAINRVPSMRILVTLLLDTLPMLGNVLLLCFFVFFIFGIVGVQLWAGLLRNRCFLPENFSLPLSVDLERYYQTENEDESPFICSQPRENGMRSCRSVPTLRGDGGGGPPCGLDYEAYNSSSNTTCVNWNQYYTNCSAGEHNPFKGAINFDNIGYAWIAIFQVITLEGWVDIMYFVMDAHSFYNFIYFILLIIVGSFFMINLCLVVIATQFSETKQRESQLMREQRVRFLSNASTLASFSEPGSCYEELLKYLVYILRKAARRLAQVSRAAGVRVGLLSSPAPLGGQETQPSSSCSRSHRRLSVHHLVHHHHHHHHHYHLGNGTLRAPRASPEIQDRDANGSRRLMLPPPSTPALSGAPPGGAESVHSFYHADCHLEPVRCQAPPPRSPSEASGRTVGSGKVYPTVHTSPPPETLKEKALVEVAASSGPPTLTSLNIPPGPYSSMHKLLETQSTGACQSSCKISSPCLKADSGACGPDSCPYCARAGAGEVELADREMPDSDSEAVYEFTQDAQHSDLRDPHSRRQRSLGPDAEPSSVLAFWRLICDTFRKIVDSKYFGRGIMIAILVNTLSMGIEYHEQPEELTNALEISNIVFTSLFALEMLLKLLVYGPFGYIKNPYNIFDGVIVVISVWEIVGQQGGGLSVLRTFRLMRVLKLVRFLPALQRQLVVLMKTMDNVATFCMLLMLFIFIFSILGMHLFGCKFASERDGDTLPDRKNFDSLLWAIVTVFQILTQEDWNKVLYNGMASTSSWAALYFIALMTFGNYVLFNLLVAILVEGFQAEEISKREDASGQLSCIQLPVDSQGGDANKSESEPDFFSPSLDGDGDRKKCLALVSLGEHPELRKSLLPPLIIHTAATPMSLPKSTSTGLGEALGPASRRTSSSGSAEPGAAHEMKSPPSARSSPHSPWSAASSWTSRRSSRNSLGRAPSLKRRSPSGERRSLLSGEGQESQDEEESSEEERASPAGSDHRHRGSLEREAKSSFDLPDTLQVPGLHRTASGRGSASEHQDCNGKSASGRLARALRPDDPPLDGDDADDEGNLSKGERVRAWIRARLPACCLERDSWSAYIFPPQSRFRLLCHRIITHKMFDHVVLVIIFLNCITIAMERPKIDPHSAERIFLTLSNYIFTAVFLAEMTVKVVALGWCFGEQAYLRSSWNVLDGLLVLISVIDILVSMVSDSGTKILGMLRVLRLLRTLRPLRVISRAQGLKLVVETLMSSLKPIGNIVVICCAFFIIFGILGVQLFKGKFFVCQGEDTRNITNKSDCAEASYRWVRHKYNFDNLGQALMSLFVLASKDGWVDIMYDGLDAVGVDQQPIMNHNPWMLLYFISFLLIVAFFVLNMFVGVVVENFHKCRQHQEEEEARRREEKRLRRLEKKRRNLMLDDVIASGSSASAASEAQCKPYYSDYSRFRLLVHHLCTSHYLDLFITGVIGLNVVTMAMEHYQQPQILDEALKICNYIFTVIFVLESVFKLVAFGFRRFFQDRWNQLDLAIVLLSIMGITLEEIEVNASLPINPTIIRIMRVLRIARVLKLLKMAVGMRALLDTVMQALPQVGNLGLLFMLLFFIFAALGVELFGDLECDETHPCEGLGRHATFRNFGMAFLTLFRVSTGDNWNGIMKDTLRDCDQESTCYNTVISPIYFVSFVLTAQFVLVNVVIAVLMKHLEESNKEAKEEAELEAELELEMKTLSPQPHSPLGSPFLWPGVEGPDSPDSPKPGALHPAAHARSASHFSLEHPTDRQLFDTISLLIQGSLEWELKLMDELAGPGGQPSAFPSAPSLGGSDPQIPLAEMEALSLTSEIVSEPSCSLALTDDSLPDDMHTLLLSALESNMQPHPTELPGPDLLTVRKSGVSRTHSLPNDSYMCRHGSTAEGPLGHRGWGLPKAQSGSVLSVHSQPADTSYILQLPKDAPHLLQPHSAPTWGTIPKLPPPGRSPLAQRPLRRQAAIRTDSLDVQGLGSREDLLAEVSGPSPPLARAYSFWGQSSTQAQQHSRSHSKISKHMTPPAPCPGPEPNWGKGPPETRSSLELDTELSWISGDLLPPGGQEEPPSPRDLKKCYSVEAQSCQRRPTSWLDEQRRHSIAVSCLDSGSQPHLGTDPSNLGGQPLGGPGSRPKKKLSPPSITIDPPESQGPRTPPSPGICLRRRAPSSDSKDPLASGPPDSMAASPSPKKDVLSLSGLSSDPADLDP

Data set [2] concerns the target T2, Voltage-dependent T-type calcium channel subunit alpha-1H (Homo sapiens, UniProt O95180). Kind of data set: Inhibition of Cav3.2 (unknown origin) assessed as reduction in KCl-induced increase in intracellular calcium level at 10 uM by fura-2 AM indicator based FDSS assay relative to control. In kind it is cell-based.
The nature of data set [3]: Stability in human liver microsomes assessed as parent compound remaining measured after 30 mins. It is filed as ADME, Microsome. The following applies: read-out: Stability. (Microsomes from liver hold many membrane-bound enzymes, among them those of drug oxidation.)
Data set [4] concerns the target Voltage-gated inwardly rectifying potassium channel KCNH2 (Homo sapiens, UniProt Q12809). As to the kind of experiment: Inhibition of human ERG by whole-cell patch clamp method. (In general: In patch-clamp work, channel activity is measured electrically.)
Data set [5] concerns Rattus norvegicus. As to the kind of experiment: Analgesic activity in Sprague-Dawley rat L5/L6 spinal nerve ligation-induced neuropathic pain model assessed as reversal of mechanical allodynia by measuring increase in paw withdrawal threshold to non-noxious mechanical stimuli at 100 mg/kg, po measured after 3 hrs relative to control. In kind it is functional.
The subject of data set [6] is Rattus norvegicus. Kind of data set: Analgesic activity in Sprague-Dawley rat L5/L6 spinal nerve ligation-induced neuropathic pain model assessed as decrease in paw withdrawal threshold to non-noxious cold stimuli at 100 mg/kg, po measured after 5 hrs. In kind it is functional, organism-based.
The target in data set [7] is T1, Voltage-dependent T-type calcium channel subunit alpha-1G. Kind of data set: Inhibition of recombinant human Cav3.1 expressed in HEK293 cells assessed as suppression of KCl-evoked current by whole-cell patch clamp method. It is filed as cell-based.
Data set [8] has as its target T2, Voltage-dependent T-type calcium channel subunit alpha-1H. As to the kind of experiment: Inhibition of Cav3.2 (unknown origin) assessed as suppression of KCl-evoked current by whole-cell patch clamp method.
The target of the next data set is CYP2C19 (Homo sapiens, UniProt P33261). As to the kind of experiment: Inhibition of CYP2C19 (unknown origin) assessed as residual activity at 10 uM relative to control. It is filed as ADME. The following applies: read-out: Activity.
Another data set addresses T3, CYP1A2 (Homo sapiens, UniProt P05177).
T3 sequence (P05177 whole entry): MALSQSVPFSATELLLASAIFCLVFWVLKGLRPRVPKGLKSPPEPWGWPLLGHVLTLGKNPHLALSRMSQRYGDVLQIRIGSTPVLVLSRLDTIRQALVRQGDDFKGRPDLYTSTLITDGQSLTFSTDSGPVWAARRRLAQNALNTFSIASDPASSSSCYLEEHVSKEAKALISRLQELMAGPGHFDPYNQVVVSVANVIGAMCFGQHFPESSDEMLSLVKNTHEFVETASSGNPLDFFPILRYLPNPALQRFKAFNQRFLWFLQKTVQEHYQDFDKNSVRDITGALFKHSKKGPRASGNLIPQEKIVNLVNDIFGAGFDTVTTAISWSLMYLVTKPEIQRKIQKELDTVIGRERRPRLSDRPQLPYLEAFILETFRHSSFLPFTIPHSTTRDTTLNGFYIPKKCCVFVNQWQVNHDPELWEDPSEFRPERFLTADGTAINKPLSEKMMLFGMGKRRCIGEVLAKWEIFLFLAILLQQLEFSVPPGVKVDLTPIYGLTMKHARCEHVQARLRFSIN
Kind of data set: Inhibition of CYP1A2 (unknown origin) assessed as residual activity at 10 uM relative to control. It is filed as ADME. The settings on record: read-out: Activity.

A further data set concerns the target CYP2D6 (Homo sapiens, UniProt P10635). As to the kind of experiment: Inhibition of CYP2D6 (unknown origin) assessed as residual activity at 10 uM relative to control. It is filed as ADME. The settings on record: read-out: Activity.
The target in the next data set is CYP2C9 (Homo sapiens, UniProt P11712). Kind of data set: Inhibition of CYP2C9 (unknown origin) assessed as residual activity at 10 uM relative to control. It is filed as ADME. The following applies: read-out: Activity.
Another data set concerns the target CYP3A4 (Homo sapiens, UniProt P08684). As to the kind of experiment: Inhibition of CYP3A4 (unknown origin) assessed as residual activity at 10 uM relative to control. In kind it is ADME. The following applies: read-out: Activity.
Data set [9] relates to Rattus norvegicus. Kind of data set: Analgesic activity in Sprague-Dawley rat L5/L6 spinal nerve ligation-induced neuropathic pain model assessed as decrease in paw withdrawal threshold to non-noxious cold stimuli at 100 mg/kg, po measured after 1 hr. In kind it is functional, organism-based.

Active and inactive are the calls of the source.

T2 sequence (O95180 whole entry): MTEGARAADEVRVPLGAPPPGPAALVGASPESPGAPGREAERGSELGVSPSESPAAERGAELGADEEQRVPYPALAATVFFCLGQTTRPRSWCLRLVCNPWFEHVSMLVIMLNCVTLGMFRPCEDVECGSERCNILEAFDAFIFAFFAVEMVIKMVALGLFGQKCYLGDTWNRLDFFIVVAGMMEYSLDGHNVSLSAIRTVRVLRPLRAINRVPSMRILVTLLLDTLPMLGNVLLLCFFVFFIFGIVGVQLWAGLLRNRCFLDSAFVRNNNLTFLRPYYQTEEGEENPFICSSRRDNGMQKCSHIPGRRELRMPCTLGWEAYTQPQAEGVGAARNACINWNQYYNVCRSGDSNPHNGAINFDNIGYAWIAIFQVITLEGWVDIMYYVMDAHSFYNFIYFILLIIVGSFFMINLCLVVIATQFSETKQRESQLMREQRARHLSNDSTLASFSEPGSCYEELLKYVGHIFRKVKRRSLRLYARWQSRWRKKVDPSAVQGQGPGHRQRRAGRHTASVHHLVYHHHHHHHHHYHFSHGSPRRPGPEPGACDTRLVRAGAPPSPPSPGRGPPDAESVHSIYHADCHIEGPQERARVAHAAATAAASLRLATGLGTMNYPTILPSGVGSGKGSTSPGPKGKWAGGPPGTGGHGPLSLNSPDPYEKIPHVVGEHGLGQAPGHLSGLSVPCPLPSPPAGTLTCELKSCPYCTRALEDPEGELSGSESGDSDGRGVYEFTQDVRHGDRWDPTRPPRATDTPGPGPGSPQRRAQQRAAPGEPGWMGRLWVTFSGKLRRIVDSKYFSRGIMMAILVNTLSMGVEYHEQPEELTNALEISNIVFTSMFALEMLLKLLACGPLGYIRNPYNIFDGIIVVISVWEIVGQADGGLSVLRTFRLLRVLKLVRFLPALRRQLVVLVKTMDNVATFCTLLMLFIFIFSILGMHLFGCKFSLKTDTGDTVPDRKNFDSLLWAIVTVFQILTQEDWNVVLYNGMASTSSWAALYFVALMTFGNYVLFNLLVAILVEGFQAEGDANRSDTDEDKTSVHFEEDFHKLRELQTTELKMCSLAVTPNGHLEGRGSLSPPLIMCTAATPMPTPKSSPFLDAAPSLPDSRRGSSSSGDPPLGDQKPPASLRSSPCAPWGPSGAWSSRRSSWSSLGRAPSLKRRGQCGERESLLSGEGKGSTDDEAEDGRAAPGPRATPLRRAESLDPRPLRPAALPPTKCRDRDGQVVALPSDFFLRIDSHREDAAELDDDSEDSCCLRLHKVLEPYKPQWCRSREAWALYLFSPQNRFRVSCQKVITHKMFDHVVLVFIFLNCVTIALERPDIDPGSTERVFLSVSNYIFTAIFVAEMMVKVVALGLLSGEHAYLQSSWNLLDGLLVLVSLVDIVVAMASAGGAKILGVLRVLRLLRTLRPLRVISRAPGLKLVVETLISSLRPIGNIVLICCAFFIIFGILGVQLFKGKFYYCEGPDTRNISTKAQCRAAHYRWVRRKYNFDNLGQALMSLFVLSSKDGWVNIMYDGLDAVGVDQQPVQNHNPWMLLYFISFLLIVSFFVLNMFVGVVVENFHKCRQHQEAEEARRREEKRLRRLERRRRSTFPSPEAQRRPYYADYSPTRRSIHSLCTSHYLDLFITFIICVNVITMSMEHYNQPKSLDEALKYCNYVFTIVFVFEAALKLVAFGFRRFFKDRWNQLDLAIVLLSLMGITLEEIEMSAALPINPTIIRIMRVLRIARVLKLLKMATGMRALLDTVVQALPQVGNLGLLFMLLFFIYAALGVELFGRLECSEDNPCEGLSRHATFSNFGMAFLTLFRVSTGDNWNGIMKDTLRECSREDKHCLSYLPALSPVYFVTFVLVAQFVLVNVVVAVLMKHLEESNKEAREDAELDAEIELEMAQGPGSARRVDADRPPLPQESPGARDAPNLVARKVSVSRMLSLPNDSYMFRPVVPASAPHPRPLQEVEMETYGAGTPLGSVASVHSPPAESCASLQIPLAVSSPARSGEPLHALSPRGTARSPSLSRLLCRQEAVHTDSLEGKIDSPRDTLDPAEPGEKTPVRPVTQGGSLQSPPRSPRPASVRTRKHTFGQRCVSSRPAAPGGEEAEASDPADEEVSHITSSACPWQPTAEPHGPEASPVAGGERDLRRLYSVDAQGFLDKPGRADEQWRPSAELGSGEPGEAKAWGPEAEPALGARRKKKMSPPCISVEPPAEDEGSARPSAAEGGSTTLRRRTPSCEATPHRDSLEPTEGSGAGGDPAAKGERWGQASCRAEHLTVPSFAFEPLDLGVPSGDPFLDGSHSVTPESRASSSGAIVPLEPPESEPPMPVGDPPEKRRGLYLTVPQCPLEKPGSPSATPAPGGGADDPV

`COC(=O)C1=C(C)NC(C)=C(C(=O)NC[C@H]2CCN(CCc3ccc(C(F)(F)F)cc3)C2)C1c1cccc([N+](=O)[O-])c1` (stereo not given in full): the inhibition worked out at 43.5% in data set [1] and 34.1% in data set [2]. In addition, the remaining at 0.5 h in [3] came to 2.01%. Also, the IC50 in data set [4] was 1480 nM.

On to `COC(=O)C1=C(C)NC(C)=C(C(=O)NC[C@H]2CCN(CCc3ccc(Cl)c(F)c3)C2)C1c1cccc([N+](=O)[O-])c1` (stereo not given in full), for which the inhibition in [1] worked out at 80.3%; in data set [2], 69.7%. Besides, the remaining at 0.5 h in data set [3] came to 2.13%. In data set [4], this compound came in with an IC50 of 330 nM.

`COC(=O)C1=C(C)NC(C)=C(C(=O)NC[C@H]2CCN(CCc3ccc(Cl)c(Cl)c3)C2)C1c1cccc([N+](=O)[O-])c1` (stereo not given in full): the results for the inhibition in data set [1] and in [2] were 32.5% and 31.3%, respectively. Besides, the remaining at 0.5 h in data set [3] came to 2.87%.

Take `NCC1(CC(=O)O)CCCCC1`: the Activity entry in the data set with Rattus norvegicus [5] and in the data set on Rattus norvegicus [6] was “Active” in each case.

`COC(=O)C1=C(C)NC(C)=C(C(=O)NC[C@H]2CCNC2)C1c1cccc([N+](=O)[O-])c1` (stereo not given in full): the inhibition amounted to 5.49% in data set [1] and 21.8% in [2].

In the case of `Cc1ccc(CCN2CC[C@H](CNC(=O)c3cc(C(C)C)no3)C2)cc1C(F)(F)F`, the inhibition in data set [1] amounted to 46.8%; in data set [2], 51.9%. Also, the remaining at 0.5 h in [3] turned out to be 39.8%. Also, the half-maximal inhibitory concentration (IC50) worked out at 1900 nM in [4], 5130 nM in data set [7] and 7610 nM in data set [8]. Further, the activity at 10 µM is 50.4% on CYP2C19; 88.1% on CYP1A2; 31.2% on CYP2D6; 53.9% at CYP2C9; 33% on CYP3A4. In the data set with Rattus norvegicus [5], the Activity was determined as 80%. Besides, the Activity entry in the data set with Rattus norvegicus [9] and in the data set with Rattus norvegicus [6] was “Active” in each case.

For `COC(=O)C1=C(C)NC(C)=C(C(=O)NC[C@H]2CCN(CCc3ccc(C)c(C(F)(F)F)c3)C2)C1c1cccc([N+](=O)[O-])c1` (stereo not given in full), the inhibition in data set [1] was 78.3%; in [2], 65.2%. Further, the remaining at 0.5 h in [3] amounted to 0.63%. The compound also came in with an IC50 in data set [4] of 2700 nM.

With `CC(C)c1cc(C(=O)NC[C@H]2CCN(CCc3ccc(C(F)(F)F)cc3)C2)on1`, the inhibition in data set [1] was 48.7%; in [2], 63.2%. Further, in data set [3], the remaining at 0.5 h is 34.2%.

In the case of `CC(C)c1cc(C(=O)NC[C@H]2CCN(CCc3ccc(Cl)c(F)c3)C2)on1`, the inhibition in data set [1] was 59.9%; in data set [2], 50.1%. In data set [3], the remaining at 0.5 h came out at 26.2%. In addition, in [4], half-maximal inhibition (IC50) was put at 1520 nM.

Regarding `CC(C)c1cc(C(=O)NC[C@H]2CCN(Cc3cccnc3)C2)on1`, the values for the inhibition in data set [1] and in data set [2] were 2.4% and 11.6%, respectively.

With `CC(C)c1cc(C(=O)NC[C@H]2CCN(CCc3ccc(Cl)c(Cl)c3)C2)on1`, the figures for the inhibition in data set [1] and in [2] were 71.7% and 69.7%, respectively. For the same compound, the remaining at 0.5 h in data set [3] is 51.7%. Further, the half-inhibitory concentration (IC50) in data set [4] was 1530 nM.

Regarding `CC(C)c1cc(C(=O)NC[C@H]2CCN(CCC(C)(C)C)C2)on1`, the inhibition in data set [1] amounted to 23.3%; in data set [2], 21.1%.

As to `CC(C)c1cc(C(=O)NC[C@H]2CCN(C(=O)CC(C)(C)C)C2)on1`, the inhibition in [1] worked out at 23.1%; in data set [2], 17.8%.

Turning to `CC(C)c1cc(C(=O)NC[C@H]2CCN(CCc3ccc(OC(F)(F)F)c(F)c3)C2)on1`, the inhibition was found to be 36.4% in data set [1] and 59.7% in data set [2]. Moreover, in [3], the remaining at 0.5 h came out at 35.2%. For the same compound, half-maximal inhibition in data set [4] (IC50) required 160 nM.

Consider `CC(C)c1cc(C(=O)NC[C@H]2CCNC2)on1`, for which the inhibition in data set [1] is 11.4%; in [2], 8.36%.

Consider `COC(=O)C1=C(C)NC(C)=C(C(=O)NC[C@H]2CCN(CCc3ccc(OC(F)(F)F)c(F)c3)C2)C1c1cccc([N+](=O)[O-])c1` (stereo not given in full), for which the inhibition in data set [1] was 26.4%; in data set [2], 33.7%. In addition, the remaining at 0.5 h in [3] is 0.25%. Besides, inhibition in data set [4] was half-maximal at 1470 nM (IC50).

The inhibition is the change of the read-out against control, counted positive when it falls. The term IC50 denotes the point on the concentration scale where inhibition reaches its midpoint.
